The target in the assay is T1, human GluN1/GluN2B NMDA receptors (Homo sapiens, UniProt Q13224).
T1 construct: expressed in transfected cells
The assay can be described thus: Cell-based calcium flux (FLIPR) assay on cloned human NR1/NR2B ion channels expressed in mammalian cells (standard and HTS buffer variants).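 Also: stable Tet-On inducible cell line, Ca2+ influx triggered by glutamate at about EC40 plus 10 µM glycine, fluorescent dye read-out over 5 min, normalized to control wells.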 On the technique in general: Calcium assays in cells follow changes in intracellular calcium, usually with a dye or a luminescent sensor.

The mark [1] stands for this setting: standard assay buffer (0.5 mM MgCl2 dye loading; 137 mM NaCl, 4 mM KCl assay buffer), human GluN1/GluN2B cells, read-out: NR2B IC50 (μM) standard assay.
Where [2] appears, read: standard assay buffer (0.5 mM MgCl2 in dye loading buffer; 137 mM NaCl, 4 mM KCl in assay buffer), human GluN1/GluN2B, read-out: NR2B IC50 (μM) standard assay.
Where [3] appears, read: HTS assay buffer (1.5 mM MgCl2 in dye loading buffer; 150 mM NaCl, 3 mM KCl in assay buffer), human GluN1/GluN2B, read-out: NR2B IC50 (μM) HTS assay.

SMILES strings stand for the structures. Where two headings read alike, the source gives them in different places.

T1 sequence (Q13224 27-1484, other chains not shown): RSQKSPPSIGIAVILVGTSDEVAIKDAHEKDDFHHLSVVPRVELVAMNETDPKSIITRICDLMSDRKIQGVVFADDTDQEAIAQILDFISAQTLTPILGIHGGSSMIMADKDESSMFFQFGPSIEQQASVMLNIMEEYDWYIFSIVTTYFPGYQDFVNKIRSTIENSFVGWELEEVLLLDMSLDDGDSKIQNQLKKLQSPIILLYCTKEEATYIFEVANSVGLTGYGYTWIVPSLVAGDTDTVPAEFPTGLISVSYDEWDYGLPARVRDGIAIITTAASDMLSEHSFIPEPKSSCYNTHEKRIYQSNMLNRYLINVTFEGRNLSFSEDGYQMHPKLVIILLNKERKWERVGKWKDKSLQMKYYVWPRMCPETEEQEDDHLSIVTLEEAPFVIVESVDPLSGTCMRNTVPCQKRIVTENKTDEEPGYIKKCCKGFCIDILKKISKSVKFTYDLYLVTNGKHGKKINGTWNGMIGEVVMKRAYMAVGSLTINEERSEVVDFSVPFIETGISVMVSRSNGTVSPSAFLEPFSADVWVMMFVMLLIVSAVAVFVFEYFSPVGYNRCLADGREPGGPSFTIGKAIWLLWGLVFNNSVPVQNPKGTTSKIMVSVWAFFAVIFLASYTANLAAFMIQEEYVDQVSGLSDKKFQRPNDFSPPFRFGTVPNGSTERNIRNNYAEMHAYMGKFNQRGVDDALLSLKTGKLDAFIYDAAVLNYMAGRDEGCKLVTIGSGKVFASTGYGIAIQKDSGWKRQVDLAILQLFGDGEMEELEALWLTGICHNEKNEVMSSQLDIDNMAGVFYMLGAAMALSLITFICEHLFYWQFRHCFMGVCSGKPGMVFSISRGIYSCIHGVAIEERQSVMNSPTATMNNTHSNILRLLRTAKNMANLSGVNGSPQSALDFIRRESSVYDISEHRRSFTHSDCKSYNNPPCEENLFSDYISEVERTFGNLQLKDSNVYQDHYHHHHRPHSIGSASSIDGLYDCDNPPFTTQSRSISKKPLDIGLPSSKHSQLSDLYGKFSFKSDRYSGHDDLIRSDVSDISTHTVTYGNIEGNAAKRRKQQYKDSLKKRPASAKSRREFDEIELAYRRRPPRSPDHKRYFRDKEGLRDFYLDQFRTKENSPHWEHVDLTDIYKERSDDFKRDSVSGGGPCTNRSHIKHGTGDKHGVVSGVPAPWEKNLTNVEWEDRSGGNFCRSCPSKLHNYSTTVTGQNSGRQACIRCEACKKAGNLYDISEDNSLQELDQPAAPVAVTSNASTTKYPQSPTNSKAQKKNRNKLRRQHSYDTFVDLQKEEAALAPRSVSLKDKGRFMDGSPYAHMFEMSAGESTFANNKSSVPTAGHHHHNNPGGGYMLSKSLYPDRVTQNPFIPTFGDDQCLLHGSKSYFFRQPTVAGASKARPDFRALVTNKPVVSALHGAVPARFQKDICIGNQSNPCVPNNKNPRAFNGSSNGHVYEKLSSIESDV

A word on the IC50: it is the midpoint of a concentration-inhibition curve. `Cc1nc(Cn2c(=O)[nH]c3ncc(-c4ccc(F)c(F)c4)cc32)no1` [Example 144, 6-(3,4-Difluorophenyl)-1-[(5-methyl-1,2,4-oxadiazol-3-yl)methyl]-3H-imidazo[4,5-b]pyridin-2-one]: the IC50 under setting [1] turned out to be 0.107 µM.

In the case of `Cn1c(=O)n(Cc2ccncn2)c2cc(-c3ccc(F)c(F)c3)cnc21` [Example 70, 6-(3,4-Difluorophenyl)-3-methyl-1-(pyrimidin-4-ylmethyl)imidazo[4,5-b]pyridin-2-one], under setting [1], the half-maximal inhibitory concentration (IC50) came to 2.21 µM.

As for `COc1ccc(-c2cnc3[nH]c(=O)n(Cc4cccc(F)c4)c3c2)cc1C` [Example 498, 1-[(3-Fluorophenyl)methyl]-6-(4-methoxy-3-methyl-phenyl)-3H-imidazo[4,5-b]pyridin-2-one], under setting [2], the IC50 turned out to be 2.22 µM.

As to `O=c1[nH]c2ncc(-c3cccc(Cl)c3)cc2n1Cc1cccnc1` [Example 296, 6-(3-Chlorophenyl)-1-(3-pyridylmethyl)-3H-imidazo[4,5-b]pyridin-2-one], the IC50 under setting [1] is 0.029 µM.

For `Cn1c(=O)n(CC(=O)N2CC(F)(F)C2)c2cc(-c3ccc(F)c(OC(F)F)c3)cnc21` [Example 590, 1-[2-(3,3-Difluoroazetidin-1-yl)-2-oxo-ethyl]-6-[3-(difluoromethoxy)-4-fluoro-phenyl]-3-methyl-imidazo[4,5-b]pyridin-2-one], under setting [2], the IC50 was 0.025 µM.

For `O=C(Cn1c(=O)[nH]c2ncc(-c3ccc(Cl)cc3)cc21)c1cccs1` [Example 459, 6-(4-Chlorophenyl)-1-[2-oxo-2-(2-thienyl)ethyl]-3H-imidazo[4,5-b]pyridin-2-one], under setting [3], the IC50 turned out to be 1.42 µM.

In the case of `CNC(=O)Cn1c(=O)[nH]c2ncc(-c3ccc(Cl)cc3)cc21` [Example 436, 2-[6-(4-Chlorophenyl)-2-oxo-3H-imidazo[4,5-b]pyridin-1-yl]-N-methyl-acetamide], the IC50 under setting [3] came out at 4.7 µM.

For the compound `Cc1ccc(C(F)(F)F)cc1-c1cnc2[nH]c(=O)n(CC(=O)N3CCC3)c2c1` [Example 29, 1-[2-(Azetidin-1-yl)-2-oxo-ethyl]-6-[2-methyl-5-(trifluoromethyl)phenyl]-3H-imidazo[4,5-b]pyridin-2-one], the IC50 under setting [1] came to 0.396 µM.

On to `Cn1c(=O)n(Cc2cccnn2)c2cc(-c3ccc(F)c(C(F)F)c3)cnc21` [Example 541, 6-[3-(Difluoromethyl)-4-fluoro-phenyl]-3-methyl-1-(pyridazin-3-ylmethyl)imidazo[4,5-b]pyridin-2-one], for which, under setting [2], the IC50 came out at 0.022 µM.

On to `Cc1cc(-c2cnc3[nH]c(=O)n(CCN4CCC4)c3c2)ccc1F` [Example 156, 1-[2-(Azetidin-1-yl)ethyl]-6-(4-fluoro-3-methyl-phenyl)-3H-imidazo[4,5-b]pyridin-2-one], for which the IC50 under setting [1] was found to be 0.039 µM.

Take `Cc1cc(-c2cnc3c(c2)n(Cc2ccncc2)c(=O)n3C)ccc1F` [Example 46, 6-(4-Fluoro-3-methyl-phenyl)-3-methyl-1-(4-pyridylmethyl)imidazo[4,5-b]pyridin-2-one]: the IC50 under setting [1] is 0.6 µM.

As for `N#Cc1cccc(Cn2c(=O)[nH]c3ncc(-c4ccc(F)c(Cl)c4)cc32)c1` [Example 480, 3-[[6-(3-Chloro-4-fluoro-phenyl)-2-oxo-3H-imidazo[4,5-b]pyridin-1-yl]methyl]benzonitrile], the IC50 under setting [3] worked out at 4.22 µM.

In the case of `Cn1c(=O)n(Cc2cccnn2)c2cc(-c3ccc(Cl)c(OC(F)F)c3)cnc21` [Example 543, 6-[4-Chloro-3-(difluoromethoxy)phenyl]-3-methyl-1-(pyridazin-3-ylmethyl)imidazo[4,5-b]pyridin-2-one], the 50% inhibitory concentration (IC50) under setting [2] came to 0.028 µM.

Regarding `Cn1c(=O)n(Cc2cccnn2)c2cc(-c3ccc(F)c(Cl)c3)cnc21` [Example 380, 6-(3-Chloro-4-fluoro-phenyl)-3-methyl-1-(pyridazin-3-ylmethyl)imidazo[4,5-b]pyridin-2-one], under setting [2], the half-maximal inhibitory concentration (IC50) was 0.016 µM.

Consider `Cn1c(=O)n(CC(=O)N2CCCC2)c2cc(-c3cccc(C(F)(F)F)c3)cnc21` [Example 197, 3-Methyl-1-(2-oxo-2-pyrrolidin-1-yl-ethyl)-6-[3-(trifluoromethyl)phenyl]imidazo[4,5-b]pyridin-2-one], for which, under setting [1], the half-maximal inhibitory concentration (IC50) turned out to be 0.205 µM.

Values taken from patent US11759455B2, “Substituted 1H-imidazo[4,5-b]pyridin-2(3H)-ones and their use as GLUN2B receptor modulators” (JANSSEN PHARMACEUTICA NV, priority 2016, dated 2023).
